What all share (format): physicochemical
Data set [1] in a line: Vapor-liquid equilibrium still, separation of 1,1,1-trichloroethane from t-butanol.
Data set [2] can be described thus: Vapor-liquid equilibrium still, separation of 1,1,1-trichloroethane from ethanol.
A short description of data set [3]: Vapor-liquid equilibrium still, separation of 1,1,1-trichloroethane from n-propanol.
The nature of data set [4]: Vapor-liquid equilibrium still, separation of 1,1,1-trichloroethane from 2-butanol.
A short description of data set [5]: Vapor-liquid equilibrium still, separation of 1,1,1-trichloroethane from methanol.
A short description of data set [6]: Vapor-liquid equilibrium still, separation of 1,1,1-trichloroethane from isopropanol.
[7] abbreviates: 1,1,1-trichloroethane from t-butanol.
Where [8] appears, read: 1,1,1-trichloroethane from ethanol.
Setting [9] is: 1,1,1-trichloroethane from n-propanol, vapor-liquid equilibrium still.
Setting [10] is: 1,1,1-trichloroethane from 2-butanol, vapor-liquid equilibrium still.
Setting [11] is: 1,1,1-trichloroethane from methanol, vapor-liquid equilibrium still.
[12] abbreviates: * Brings out Ethanol as Overhead.

The values that follow come from US5196094A, “Separation of 1,1,1-trichloroethane from the lower alcohols by extractive distillation” (priority 1991, dated 1993).

In the case of `CCCCO` [1-Butanol], the “Relative Volatility” value was found to be 2.7 in data set [1] (setting [7]), 3.5 in data set [2] (setting [8]) and 3.9 in data set [3] (setting [9]).

Take `COCC(C)OC(C)=O` (centres unmarked) [1-Methoxy-2-propanol acetate]: the figures for the “Relative Volatility” value in data set [4] (setting [10]), in data set [5] and in data set [6] were 4.3, 1.7 and 1.7, respectively.

On to `CCCCC(CC)COC(C)=O` (centres unmarked) [2-Ethyl hexyl acetate], for which the “Relative Volatility” value in data set [4] is on record as 1.6; in data set [5] (setting [11]), 2.0; in data set [6], 1.3.

Take `CCC(C)COC(C)=O` (centres unmarked) [2-Methyl butyl acetate]: in data set [6], the “Relative Volatility” value was determined as 1.35.

Turning to `N#CCCCCC#N` [Adiponitrile], in data set [6], the “Relative Volatility” value was found to be 1.25.

With `CCCCCOC(C)=O` [Amyl acetate], the “Relative Volatility” value in data set [4] turned out to be 1.5; in data set [5] (setting [11]) it was 2.1; in data set [6] it was 1.4.

In the case of `CC(=O)OCc1ccccc1` [Benzyl acetate], the “Relative Volatility” value stood at 1.7 in data set [4] (setting [10]), 2.5 in data set [5], 1.2 in data set [2] (setting [8]) and 1.55 in data set [6].

Regarding `CCCCOCCOCCO` [Diethylene glycol butyl ether], the “Relative Volatility” value in data set [1] (setting [7]) was 1.5; in data set [4] it was 2.7; in data set [5] (setting [11]), 2.1; in data set [3] (setting [9]), 2.8.

Turning to `CCOCCOCCOCC` [Diethylene glycol diethyl ether], the “Relative Volatility” value in data set [4] turned out to be 1.6; in data set [5], 2.7; in data set [2] (setting [12]) it was 1.2; in data set [3], 1.6.

Take `CCOCCOCCO` [Diethylene glycol ethyl ether]: the “Relative Volatility” value in data set [1] (setting [7]) was determined as 1.4; in data set [4] (setting [10]) it was 2.8; in data set [5], 2.9; in data set [2] (setting [8]) it was 1.2.

For the compound `CCCCCCOCCOCCO` [Diethylene glycol hexyl ether], the “Relative Volatility” value is reported as 1.5 in data set [1] (setting [7]), 2.3 in data set [4] (setting [10]), 4.2 in data set [5] (setting [11]) and 2.0 in data set [3] (setting [9]).

As to `COCCOCCO` [Diethylene glycol methyl ether], the “Relative Volatility” value was 2.2 in data set [1] (setting [7]); 3.0 in data set [4]; 3.3 in data set [5] (setting [11]); 3.3 in data set [2] (setting [8]); 2.7 in data set [3].

Turning to `CN(C)C=O` [Dimethylformamide], the “Relative Volatility” value is reported as 2.8 in data set [4], 2.8 in data set [5], 1.55 in data set [6] and 2.8 in data set [3].

In the case of `CCCC(=O)OCC` [Ethyl butyrate], the entries for the “Relative Volatility” value in data set [2] (setting [12]) and in data set [6] were 1.2 and 1.3, respectively.

In the case of `CCOC(=O)CC(C)C` [Ethyl isovalerate], the “Relative Volatility” value in data set [4] is reported as 1.6; in data set [5], 2.7; in data set [2] (setting [8]) it was 1.4; in data set [6] it was 1.6.

As for `CCCCC(=O)OCC` [Ethyl n-valerate], the “Relative Volatility” value in data set [4] is given as 1.5; in data set [5], 2.7; in data set [2] (setting [8]) it was 1.6; in data set [6], 1.35.

For the compound `O=C1OCCO1` [Ethylene carbonate], the “Relative Volatility” value in data set [1] (setting [7]) was 1.3; in data set [4] (setting [10]), 2.8; in data set [5] (setting [11]), 3.3; in data set [2] (setting [8]), 3.2.

`CCCCOCCOC(C)=O` [Ethylene glycol butyl ether acetate]: the “Relative Volatility” value in data set [4] worked out at 1.8; in data set [5] (setting [11]), 2.1; in data set [2] (setting [8]) it was 1.2; in data set [6] it was 1.3.

`CCCCOCCO` [Ethylene glycol butyl ether]: the “Relative Volatility” value in data set [1] (setting [7]) stood at 1.7; in data set [4] (setting [10]), 2.8; in data set [5] (setting [11]) it was 3.2; in data set [3] (setting [9]), 2.0.

Consider `CC(=O)OCCOC(C)=O` [Ethylene glycol diacetate], for which the “Relative Volatility” value in data set [1] (setting [7]) amounted to 1.3; in data set [2] (setting [8]) it was 1.7; in data set [3], 1.7.

Consider `CCOCCO` [Ethylene glycol ethyl ether], for which the “Relative Volatility” value in data set [1] (setting [7]) is listed as 2.2; in data set [4], 3.1; in data set [2] (setting [8]) it was 2.5; in data set [3], 3.6.

For the compound `COCCO` [Ethylene glycol methyl ether], the “Relative Volatility” value in data set [1] (setting [7]) came out at 3.1; in data set [4], 4.5; in data set [2] (setting [8]) it was 1.95; in data set [3], 4.4.

With `OCCOc1ccccc1` [Ethylene glycol phenyl ether], the “Relative Volatility” value is 1.3 in data set [1] (setting [7]), 2.0 in data set [4] (setting [10]), 3.1 in data set [5] and 2.5 in data set [3].

As for `CCCCCCOC(C)=O` [Hexyl acetate], the “Relative Volatility” value in data set [4] is 1.6; in data set [6] it was 1.35.

For `CCCCCCO` [Hexyl alcohol], the “Relative Volatility” value in data set [1] (* Brings out t-Butanol as Overhead) is 1.2; in data set [3] it was 2.5.

Regarding `CC(C)CCO` [Isoamyl alcohol], the “Relative Volatility” value in data set [1] (setting [7]) came to 3.0; in data set [4] it was 1.6; in data set [5], 2.2; in data set [3], 3.6.

For `CC(C)CO` [Isobutanol], the figures for the “Relative Volatility” value in data set [1] (setting [7]), in data set [2] (setting [8]) and in data set [3] were 1.2, 1.35 and 2.2, respectively.

On to `CC(=O)OCC(C)C` [Isobutyl acetate], for which the “Relative Volatility” value in data set [6] was found to be 1.35.

For the compound `CC(C)COC(=O)C(C)C` [Isobutyl isobutyrate], the figures for the “Relative Volatility” value in data set [4], in data set [2] (setting [8]) and in data set [6] were 1.5, 3.3 and 1.3, respectively.

Turning to `CC1=CC(=O)CC(C)(C)C1` [Isophorone], the “Relative Volatility” value in data set [1] (setting [7]) stood at 1.4; in data set [4] (setting [10]), 2.0; in data set [2] (setting [8]), 1.55.

`CC[N+](=O)[O-]` [Nitroethane]: the “Relative Volatility” value came out at 2.8 in data set [5] and 1.3 in data set [6].

Regarding `CC(=O)Oc1ccccc1` [Phenyl acetate], in data set [6], the “Relative Volatility” value is on record as 1.25.

Turning to `CC1COC(=O)O1` (centres unmarked) [Propylene carbonate], the “Relative Volatility” value in data set [1] (setting [7]) amounted to 1.5; in data set [4] (setting [10]) it was 2.4; in data set [2] (setting [8]), 2.2; in data set [3] (setting [9]), 2.0.

For `CC(C)COCC(C)O` (centres unmarked) [Propylene glycol isobutyl ether], the “Relative Volatility” value amounted to 1.4 in data set [1] (setting [7]), 2.4 in data set [4] (setting [10]) and 2.5 in data set [5].

For the compound `CC(O)COc1ccccc1` (centres unmarked) [Propylene glycol phenyl ether], the “Relative Volatility” value in data set [4] (setting [10]) worked out at 2.4; in data set [5], 3.1; in data set [6] it was 1.6; in data set [3] (setting [9]), 3.4.

Take `O=S1(=O)CCCC1` [Sulfolane]: the “Relative Volatility” value in data set [1] (setting [7]) was 1.4; in data set [4], 2.7; in data set [2] (setting [8]), 2.2; in data set [6], 1.4.
